Our source for the target mRNA inhibition values is the OligoGym collection.

For this series, the target named is KRAS. The note with it: ASO.

Values joined by “and” are separate entries in the source; they are usually repeats but may differ in a detail not shown here. Equal values may be shown once. After the bases stand the sugars from the 5' end (letter, count) and the backbone: PS all phosphorothioate, else s phosphorothioate and o phosphodiester by linkage. Methylation of C is not given here. e = 2'-O-(2-methoxyethyl) (MOE); k = constrained ethyl (cEt); d = 2'-deoxy (DNA)

The sequence TGCTAATAATTTAGTG (sugars k3 d10 k3, PS) yielded a target mRNA inhibition (A431, 2 µM) of 6%.

Under “A431, 2 µM”, “AGGAGTCTTTATAGTA (sugars kkkddddddddkekek, PS)” registered a target mRNA inhibition of 22%. Still for that read-out and setting: as for TCTTATGGTTAGGGGA (sugars k3 d10 k3, PS), the figure is 8%; as for “AGTGTGACTCAGTTAA (sugars kkkddddddddkekek, PS)”, 29%. Turning to AAAAAATTAATGTCTT (sugars k3 d10 k3, PS), the target mRNA inhibition (A431, 2 µM) came out at 9%.

“ACCATTCAAAGTTCAC (sugars kddddddddddkekek, PS)” registered a target mRNA inhibition (A431, 2 µM) of 18%.

With “ATGCTGTGAAACTCTC (sugars k3 d9 k3 e1, PS)”, where the note is “A431, 2 µM”, the target mRNA inhibition worked out at 37%. On the same count and under the same terms, as for ATTAATCCATTTATGT (sugars k3 d10 k3, PS), the figure is 3%. Under “A431, 2 µM”, GGCATTGCTAGTTCAA (sugars k3 d10 k3, PS) gave a target mRNA inhibition of 43%. Take TTCTGATGTGACTCAG (sugars k3 d10 k3, PS): the target mRNA inhibition (A431, 2 µM) is 26%. GATTTGTCAGCAGGAC (sugars k3 d10 k3, PS): the target mRNA inhibition was 68% (A431, 0.037 µM); 47% (A431, 2 µM); 96% and 93% (A431, 5 µM); 60.1% (NCI-H460, 0.037 µM). On to “GGTGTAACATAGGTTA (sugars kdddddddddkekeke, PS)”, for which the target mRNA inhibition was 1% (A431, 0.185 µM); 35% (A431, 0.556 µM); 56% (A431, 1.667 µM); 57% (A431, 2 µM); 71% (A431, 5 µM); 52.2% (NCI-H460, 0.037 µM). Where the note is “A431, 2 µM”, GCTAATAATTTAGTGT (sugars k3 d10 k3, PS) returned a target mRNA inhibition of 18%.

As to AAGATGGTGTAACATA (sugars k3 d10 k3, PS), the target mRNA inhibition (A431, 2 µM) came to 30%. On the same count and under the same terms, the same measure for “AGGAGTCTTTATAGTA (sugars kkkddddddddkdkdk, PS)”: 30%; for “ACCAGTGTTAAGAGAA (sugars k3 d9 k3 e1, PS)”: 44%.

The sequence ACTCTCTATGAAAGCT (sugars k3 d10 k3, PS) registered a target mRNA inhibition (A431, 2 µM) of 29%. On the same count and under the same terms, the same measure for “TCCAGTGATACTTTCA (sugars kkdddddddddkekek, PS)”: 37%; for AATTGTGCAATGGTGA (sugars k3 d10 k3, PS): 46%. Consider “GATTTGTCAGCAGGAC (sugars kdddddddddkekeke, PS)”, for which the target mRNA inhibition (A431, 2 µM) came to 32%. Still for that read-out and setting: the same measure for “AGATTGTGCTGAGCTT (sugars kkkddddddddkdkdk, PS)”: 42%. Take CTCTTGATTTGTCAGC (sugars k3 d10 k3, PS): the target mRNA inhibition is 66% (A431, 0.037 µM); 64% and 57% (A431, 0.125 µM); 55.4% (NCI-H460, 0.037 µM). As to ATTACTTATGCAGAGA (sugars k3 d10 k3, PS), the target mRNA inhibition (A431, 2 µM) is 60%.

Consider TGCAGTGTGACTCAGT (sugars k3 d10 k3, PS), for which the target mRNA inhibition (A431, 2 µM) came to 55%. In turn, “TTGATTTGTCAGCAGG (sugars kddddddddddkekek, PS)” displayed a target mRNA inhibition (A431, 2 µM) of 17%.

As to “TTAGTGATTAGGTCAA (sugars kddddddddddkekek, PS)”, the target mRNA inhibition (A431, 2 µM) came out at 12%.

In turn, “TTAGTGATTAGGTCAA (sugars kkkdddddddddkeke, PS)” returned a target mRNA inhibition (A431, 2 µM) of 32%. Same read-out and setting: the same measure for GAGGCAAGATGACACT (sugars k3 d10 k3, PS): 0%.

Turning to “GGTGTAACATAGGTTA (sugars kddddddddddkekek, PS)”, the target mRNA inhibition turned out to be 15% (A431, 0.185 µM); 39% (A431, 0.556 µM); 62% (A431, 1.667 µM); 64% (A431, 2 µM); 80% (A431, 5 µM). Under “A431, 2 µM”, “GATTGTGCTGAGCTTG (sugars kkkddddddddkekek, PS)” displayed a target mRNA inhibition of 37%. “GTCCAGTGATACTTTC (sugars kkkdddddddddkeke, PS)”: the target mRNA inhibition (A431, 2 µM) came to 33%. On the same count and under the same terms, the same measure for “GTCCAGTGATACTTTC (sugars kkkddddddddkdkdk, PS)”: 30%.
